4 compounds from ChEMBL document CHEMBL1201862, “PubChem BioAssay data set” (2004) can be followed below.

In assay [1] the target is Polyadenylate-binding protein 1 (Homo sapiens, UniProt P11940). In words: PABP inhibition in translation initiation, SAR follow-up (AID 435018). Format: functional.
Assay [2] addresses Eukaryotic translation initiation factor 4H (Homo sapiens, UniProt Q15056). Kind of assay: eIF4H inhibition in translation initiation, SAR follow-up (AID 435011). Format: functional.
Assay [3] concerns the target T1, Corticotropin-releasing factor receptor 2/Corticotropin-releasing factor-binding protein (Homo sapiens, UniProt P24387+Q13324).
T1 sequence (Q13324 whole entry): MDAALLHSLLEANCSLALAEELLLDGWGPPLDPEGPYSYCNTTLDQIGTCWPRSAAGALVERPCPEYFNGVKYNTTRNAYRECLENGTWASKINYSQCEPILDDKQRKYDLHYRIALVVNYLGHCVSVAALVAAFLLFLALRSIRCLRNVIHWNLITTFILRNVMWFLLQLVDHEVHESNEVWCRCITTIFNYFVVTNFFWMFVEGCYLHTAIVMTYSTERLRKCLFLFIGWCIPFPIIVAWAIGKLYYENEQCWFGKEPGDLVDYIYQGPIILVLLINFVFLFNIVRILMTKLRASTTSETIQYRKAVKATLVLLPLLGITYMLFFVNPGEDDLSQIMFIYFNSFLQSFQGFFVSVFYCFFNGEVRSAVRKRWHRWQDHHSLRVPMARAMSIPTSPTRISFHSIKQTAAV
T1 sequence (P24387 whole entry): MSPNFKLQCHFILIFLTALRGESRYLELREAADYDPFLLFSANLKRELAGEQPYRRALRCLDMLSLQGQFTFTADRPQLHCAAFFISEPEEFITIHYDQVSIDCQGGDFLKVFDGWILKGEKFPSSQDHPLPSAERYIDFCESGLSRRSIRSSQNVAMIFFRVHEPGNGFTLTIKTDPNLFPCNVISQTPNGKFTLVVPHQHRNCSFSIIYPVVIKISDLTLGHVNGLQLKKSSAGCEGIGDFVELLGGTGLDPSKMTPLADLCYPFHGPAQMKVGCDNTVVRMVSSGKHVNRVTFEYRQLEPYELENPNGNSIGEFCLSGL
Kind of assay: activators of CRF receptor 2 with binding protein – uHTS hits, confirmation (AID 602473). Format: functional. Particulars: read-out: EC50_Mean.

The target of assay [4] is T1, Corticotropin-releasing factor receptor 2/Corticotropin-releasing factor-binding protein. Kind of assay: Dose Response confirmation of uHTS hits for small molecule antagonists of the CRF-binding protein and CRF-R2 receptor complex. The following applies: read-out: IC50_Mean. Format: functional.
Assay [5] addresses Intestinal-type alkaline phosphatase (Homo sapiens, UniProt P09923). In words: Dose Response confirmation of uHTS hits from a small molecule inhibitors of human intestinal alkaline phosphatase via a luminescent assay. [Related pubchem assays (depositor defined):AID2544, AID2574]. Format: functional.
Assay [6] in a line: cytotoxicity in BJeH fibroblasts, dose response, counter-screen for Ras selective lethality project, BJeH cells, dry powder (AID 493054). Format: functional, cell-based. A general note: Counterscreens check selectivity or assay interference.
The nature of assay [7]: viability loss in BJeLR (HRASV12) cells, primary screen, Ras selective lethality project, cell-based, Alamar Blue, dry powder (AID 493045). Format: functional. On the technique in general: The colour change of resazurin is a common sign of viable cells or microbes.
Assay [8] is described as follows: cytotoxicity in BJeHLT fibroblasts, dose response, counter-screen for Ras selective lethality project, BJeHLT cells, dry powder (AID 493052). Format: functional, cell-based. Particulars: Homo sapiens.
Assay [9] can be described thus: viability loss in HRASV12 DRD fibroblasts, dose response, cell-based, DRD BJ fibroblasts, dry powder (AID 493049). Format: functional.
For assay [10], the target named is NACHT, LRR and PYD domains-containing protein 1 (Homo sapiens, UniProt Q9C000). In words: NALP1 inhibitors in yeast, dose response, luminescent (AID 488860). Format: functional.
NACHT, LRR and PYD domains-containing protein 1, sequence (Q9C000 1-1212 limits assumed): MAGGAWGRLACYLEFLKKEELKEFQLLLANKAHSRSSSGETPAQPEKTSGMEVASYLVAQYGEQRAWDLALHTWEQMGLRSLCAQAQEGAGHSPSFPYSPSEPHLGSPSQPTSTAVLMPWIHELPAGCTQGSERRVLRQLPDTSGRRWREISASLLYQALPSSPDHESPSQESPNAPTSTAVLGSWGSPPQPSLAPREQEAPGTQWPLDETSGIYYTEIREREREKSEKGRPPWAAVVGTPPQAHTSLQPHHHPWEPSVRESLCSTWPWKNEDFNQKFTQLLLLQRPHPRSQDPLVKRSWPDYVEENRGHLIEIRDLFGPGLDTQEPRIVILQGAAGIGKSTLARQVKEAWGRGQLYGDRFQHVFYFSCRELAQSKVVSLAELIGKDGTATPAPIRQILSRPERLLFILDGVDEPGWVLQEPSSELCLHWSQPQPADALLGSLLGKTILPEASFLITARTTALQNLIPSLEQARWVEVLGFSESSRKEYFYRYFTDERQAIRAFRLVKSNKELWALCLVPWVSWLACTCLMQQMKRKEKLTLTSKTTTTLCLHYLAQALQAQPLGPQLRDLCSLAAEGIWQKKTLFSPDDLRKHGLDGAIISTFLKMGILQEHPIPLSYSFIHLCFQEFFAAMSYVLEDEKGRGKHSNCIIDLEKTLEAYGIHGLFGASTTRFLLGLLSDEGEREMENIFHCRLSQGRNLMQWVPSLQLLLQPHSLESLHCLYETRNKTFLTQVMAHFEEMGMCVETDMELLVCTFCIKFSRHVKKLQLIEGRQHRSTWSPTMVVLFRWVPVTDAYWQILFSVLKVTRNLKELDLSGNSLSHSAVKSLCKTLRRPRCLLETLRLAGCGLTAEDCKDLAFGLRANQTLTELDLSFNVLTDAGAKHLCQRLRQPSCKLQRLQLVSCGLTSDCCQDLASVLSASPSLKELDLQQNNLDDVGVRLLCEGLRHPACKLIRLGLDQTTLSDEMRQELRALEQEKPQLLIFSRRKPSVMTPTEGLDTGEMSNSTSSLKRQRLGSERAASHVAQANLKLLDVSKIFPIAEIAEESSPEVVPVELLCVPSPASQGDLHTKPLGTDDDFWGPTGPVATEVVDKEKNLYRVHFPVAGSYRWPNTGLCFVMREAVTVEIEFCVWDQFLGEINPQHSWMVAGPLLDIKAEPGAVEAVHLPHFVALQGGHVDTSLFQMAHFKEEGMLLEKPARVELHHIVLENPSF
NACHT, LRR and PYD domains-containing protein 1, sequence (Q9C000 1213-1473 limits assumed): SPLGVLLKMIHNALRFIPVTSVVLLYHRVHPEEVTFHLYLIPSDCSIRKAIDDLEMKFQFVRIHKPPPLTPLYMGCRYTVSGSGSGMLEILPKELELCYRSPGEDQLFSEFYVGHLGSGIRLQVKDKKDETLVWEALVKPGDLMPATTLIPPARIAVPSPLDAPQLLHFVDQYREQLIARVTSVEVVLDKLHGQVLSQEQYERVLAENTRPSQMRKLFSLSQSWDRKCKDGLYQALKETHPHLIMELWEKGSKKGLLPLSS
The next assay relates to Saccharomyces cerevisiae. Kind of assay: NALP1 inhibitor project selectivity study, Caspase-1/ASC signal blockade IC50 in S. cerevisiae (AID 488863). Format: functional, organism-based.
Assay [11] concerns the target T2, Neuropeptide Y receptor type 1 (Homo sapiens, UniProt P25929).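 Further: HEK293 cells with a CNG channel challenged with NPY then isoproterenol; potency as antagonist that reverses NPY suppression of cAMP signal.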
T2 sequence (P25929 whole entry): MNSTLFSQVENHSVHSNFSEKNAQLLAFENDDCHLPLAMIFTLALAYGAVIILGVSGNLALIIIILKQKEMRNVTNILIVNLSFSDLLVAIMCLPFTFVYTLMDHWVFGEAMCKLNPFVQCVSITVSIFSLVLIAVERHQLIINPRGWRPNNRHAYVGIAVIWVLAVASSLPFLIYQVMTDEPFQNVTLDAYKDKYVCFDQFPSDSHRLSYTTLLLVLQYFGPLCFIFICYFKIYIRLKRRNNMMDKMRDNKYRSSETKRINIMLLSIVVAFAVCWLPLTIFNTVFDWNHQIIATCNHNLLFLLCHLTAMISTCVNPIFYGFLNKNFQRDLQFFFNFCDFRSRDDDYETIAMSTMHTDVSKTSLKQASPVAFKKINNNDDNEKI
Format: functional.

Assay [12] has as its target Luciferin 4-monooxygenase (Photinus pyralis, UniProt P08659). Kind of assay: firefly luciferase enzyme inhibitors, dose response, biochemical, luminescence (AID 1891).
The nature of assay [13]: Luminescence Cell-Based Dose Confirmation HTS to Identify Inhibitors of Platelet Dense Granule Release. [Related pubchem assays: 1663 (Primary HTS), 1678 (Summary of Project)]. Format: functional.
In assay [14] the target is T3, Neuropeptide Y receptor type 2 (Homo sapiens, UniProt P49146).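 Further: HEK293 cells expressing the receptor and a CNG channel; stimulus was NPY near EC95 followed by isoproterenol to raise cAMP; antagonist potency measured as restoring cAMP signal that NPY suppresses.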
T3 sequence (P49146 whole entry): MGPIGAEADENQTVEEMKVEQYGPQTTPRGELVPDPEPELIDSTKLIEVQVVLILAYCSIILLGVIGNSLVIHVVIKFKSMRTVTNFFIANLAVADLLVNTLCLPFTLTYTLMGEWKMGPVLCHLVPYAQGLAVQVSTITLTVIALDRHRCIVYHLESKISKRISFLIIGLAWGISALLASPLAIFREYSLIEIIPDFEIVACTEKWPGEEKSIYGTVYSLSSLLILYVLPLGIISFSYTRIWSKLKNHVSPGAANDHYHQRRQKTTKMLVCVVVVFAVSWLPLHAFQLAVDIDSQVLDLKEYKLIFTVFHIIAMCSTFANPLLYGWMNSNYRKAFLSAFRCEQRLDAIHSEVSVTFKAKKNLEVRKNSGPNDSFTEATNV
Format: functional, cell-based.

The source made the active and inactive calls.

Polyadenylate-binding protein 1, sequence (P11940 whole entry): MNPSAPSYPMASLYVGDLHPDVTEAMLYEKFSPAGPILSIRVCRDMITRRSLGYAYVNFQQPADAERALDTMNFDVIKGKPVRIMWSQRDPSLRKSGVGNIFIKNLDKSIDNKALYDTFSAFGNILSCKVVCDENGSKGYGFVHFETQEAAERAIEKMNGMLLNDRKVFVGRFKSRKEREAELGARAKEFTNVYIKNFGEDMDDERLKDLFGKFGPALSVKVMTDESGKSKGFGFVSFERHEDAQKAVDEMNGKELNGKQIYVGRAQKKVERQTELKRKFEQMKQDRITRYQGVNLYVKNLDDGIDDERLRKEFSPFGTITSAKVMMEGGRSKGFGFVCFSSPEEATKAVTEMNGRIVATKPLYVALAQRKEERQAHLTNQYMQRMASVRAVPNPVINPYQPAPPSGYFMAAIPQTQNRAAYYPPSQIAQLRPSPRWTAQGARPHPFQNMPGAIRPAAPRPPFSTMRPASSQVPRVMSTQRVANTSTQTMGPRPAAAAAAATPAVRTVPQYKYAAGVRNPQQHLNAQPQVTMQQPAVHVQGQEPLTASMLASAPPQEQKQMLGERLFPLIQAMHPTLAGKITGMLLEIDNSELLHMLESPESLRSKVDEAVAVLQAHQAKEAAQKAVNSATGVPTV
Luciferin 4-monooxygenase, sequence (P08659 whole entry): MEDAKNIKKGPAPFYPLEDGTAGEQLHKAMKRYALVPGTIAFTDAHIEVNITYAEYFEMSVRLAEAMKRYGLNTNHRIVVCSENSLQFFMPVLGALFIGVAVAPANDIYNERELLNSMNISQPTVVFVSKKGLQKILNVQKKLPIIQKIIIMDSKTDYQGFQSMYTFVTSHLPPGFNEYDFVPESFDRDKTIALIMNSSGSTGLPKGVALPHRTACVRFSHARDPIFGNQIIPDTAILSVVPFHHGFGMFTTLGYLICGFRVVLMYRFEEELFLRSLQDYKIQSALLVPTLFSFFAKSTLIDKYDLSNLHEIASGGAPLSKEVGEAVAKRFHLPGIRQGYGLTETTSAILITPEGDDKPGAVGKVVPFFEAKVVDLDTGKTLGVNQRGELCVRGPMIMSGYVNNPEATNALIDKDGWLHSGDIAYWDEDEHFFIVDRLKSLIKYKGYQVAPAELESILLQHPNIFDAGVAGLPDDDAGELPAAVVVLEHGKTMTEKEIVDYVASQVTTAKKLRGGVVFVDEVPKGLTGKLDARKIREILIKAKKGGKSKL
Intestinal-type alkaline phosphatase, sequence (P09923 whole entry): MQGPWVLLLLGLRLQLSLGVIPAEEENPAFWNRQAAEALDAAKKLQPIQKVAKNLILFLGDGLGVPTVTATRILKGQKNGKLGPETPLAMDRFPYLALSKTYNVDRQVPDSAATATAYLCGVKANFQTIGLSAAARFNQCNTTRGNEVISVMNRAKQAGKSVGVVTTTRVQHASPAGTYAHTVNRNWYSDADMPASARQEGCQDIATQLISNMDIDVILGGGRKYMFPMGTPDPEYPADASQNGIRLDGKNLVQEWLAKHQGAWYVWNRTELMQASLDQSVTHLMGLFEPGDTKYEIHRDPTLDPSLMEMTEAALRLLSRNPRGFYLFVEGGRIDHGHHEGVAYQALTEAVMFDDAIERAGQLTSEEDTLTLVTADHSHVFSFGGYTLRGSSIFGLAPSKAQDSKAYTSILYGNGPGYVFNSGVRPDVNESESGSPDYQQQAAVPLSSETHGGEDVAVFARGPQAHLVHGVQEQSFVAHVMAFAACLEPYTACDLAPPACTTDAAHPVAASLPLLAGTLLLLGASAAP

Take `COc1ccccc1N=C1SC(C(=O)Nc2ccc(F)cc2)CC(=O)N1C` (stereo not given): the IC50 in assay [1] and in assay [2] was > 100 µM (inactive) throughout.

As to `Cc1ccccc1CNC(=O)c1ccccc1N`, the EC50 in assay [3] is > 53 µM (inactive). The IC50 in assay [4] was > 47.1 µM (inactive); in [5] it was > 100 µM (inactive).

With `COc1ccc(N(C(=O)CCl)C(C(=O)NCc2ccccc2)c2cccs2)cc1Cl` (stereo not given), the AC50 in assay [6] was 0.336 µM (active); in [7], 0.075 µM (active); in assay [8], 0.179 µM (active); in [9] it was 0.098 µM (active).

In the case of `COc1cc(/C=N/n2cnnc2)ccc1OCc1ccc(C)cc1`, the IC50 was > 100 µM (inactive) in assay [10], > 100 µM (inactive) with Saccharomyces cerevisiae, 7.08 µM (active) in assay [11] and 4.18 µM (active) in assay [14]. Moreover, the EC50 was > 112 µM (not active) in assay [12] and 20.8 µM (active) in assay [13].

A word on the AC50: it is the concentration giving half of the maximal activity seen.
